Test results taken from US12540150B1, “Fluorogenic probe using a Mislow-Evans rearrangement for real-time imaging of hydrogen peroxide” (University of Pittsburgh—Of the Commonwealth System of …, priority 2020, dated 2026).
Several values for one entry are separate records, joined by “and”; a condition that tells them apart may be missing. Equal values may be shown once. Read-outs that look alike come from different tables or passages of the source.

Columns and labels:
[1] = Fluorescence intensity of selenide 1 and phenol 5; type: physicochemical; settings: pH 7
Experimental: All fluorescence measurements (excitation 490 nm, emission 510-570 nm) were carried out using a Promega Biosystems Modulus II Microplate Reader or a HoribaMax Fluorometer unless otherwise stated. Data analysis was performed using GraphPad Prism 8.
The fluorescence intensity of selenide 1 and phenol 5 were investigated. Solutions containing ultrapure water (681 μL), […] phosphate pH 7 buffer (31 μL), DMSO (28.1 μL), and 80 μM 1 or phenol 5 in DMSO (9.4 μL) were made. Aliquots of these solutions (200 μL) were transferred to the wells of a black 96-well plate and the fluorescence was measured. As evident from FIG. 10 and Table 1, the difference in fluorescence intensity of probe 1 and phenol 5, is 27-fold. Generally, O-alkylation of Pittsburgh Green suppresses the fluorescence by 200-400 fold. The somewhat modest fluorescence increase in the current system is attributed to the trace contamination of the fluorescent compound 5 during the purification of the nonfluorescent probe 1.

[2] = 100 nM in water
Experimental: The pH dependence of phenol 5 was also investigated. Phenol 5 was dissolved in water to a concentration of 100 nM. This solution (100 mL) was titrated with HCl and NaOH. The pH was measured after each addition before measuring the fluorescence using a Horiba FluoroMax3 fluorescence spectrometer. Fluorescence was measured using 1 nm slit widths with an excitation wavelength of 496 nm and an emission wavelength of 510 nm, the results of which are shown in FIG. 23 and Table 15.

[3] = system: RAW cells; experiment: Imaging of endogenous H2O2 upon ionomycin stimulation in RAW cells; type: cell-based; settings: 5 μM probe
Excerpt: After detecting exogenously added H2O2 in cells, the focus shifted to more biologically relevant, endogenous H2O2. It was attempted to monitor endogenous H2O2 production upon stimulation with ionomycin in RAW cells. […] In contrast, with probe 1, a significant response was observed within 30 s after the addition of ionomycin relative to the baseline fluorescence (FIG. 24B-C) and peaked at 48 s.

O=c1ccc2c(-c3ccccc3CO)c3ccc(O)cc3oc-2c1 [Compound 5]
Fluorescence Intensity [1]: 244,687 and 247,204 and 246,848
Fluorescence Intensity ([2]; pH 3.99): 920
Fluorescence Intensity ([2]; pH 4.20): 930
Fluorescence Intensity ([2]; pH 4.33): 1,070
Fluorescence Intensity ([2]; pH 4.48): 1,450
Fluorescence Intensity ([2]; pH 4.65): 1,440
Fluorescence Intensity ([2]; pH 4.77): 1,670
Fluorescence Intensity ([2]; pH 5.07): 2,790
Fluorescence Intensity ([2]; pH 5.51): 5,280
Fluorescence Intensity ([2]; pH 5.69): 7,130
Fluorescence Intensity ([2]; pH 5.90): 10,250
Fluorescence Intensity ([2]; pH 6.30): 18,790
Fluorescence Intensity ([2]; pH 6.38): 18,720
Fluorescence Intensity ([2]; pH 6.48): 22,820
Fluorescence Intensity ([2]; pH 6.80): 27,620
Fluorescence Intensity ([2]; pH 6.90): 31,730
Fluorescence Intensity ([2]; pH 7.11): 34,510
Fluorescence Intensity ([2]; pH 7.18): 35,740
Fluorescence Intensity ([2]; pH 7.69): 39,880
Fluorescence Intensity ([2]; pH 8.31): 41,950
Fluorescence Intensity ([2]; pH 8.63): 42,930
Fluorescence Intensity ([2]; pH 8.88): 44,240
Fluorescence Intensity ([2]; pH 9.00): 43,280
Fluorescence Intensity ([2]; pH 9.09): 43,110
Fluorescence Intensity ([2]; pH 9.15): 43,140
Fluorescence Intensity ([2]; pH 9.32): 43,550
Fluorescence Intensity ([2]; pH 9.40): 43,850
Fluorescence Intensity ([2]; pH 9.49): 43,340
Fluorescence Intensity ([2]; pH 9.56): 45,080
Fluorescence Intensity ([2]; pH 9.61): 44,640
Fluorescence Intensity ([2]; pH 9.71): 43,930
Fluorescence Intensity ([2]; pH 9.75): 42,610
Fluorescence Intensity ([2]; pH 9.83): 44,070
Fluorescence Intensity ([2]; pH 9.92): 43,670
Fluorescence Intensity ([2]; pH 10.01): 41,900
Fluorescence Intensity ([2]; pH 10.10): 42,170
Fluorescence Intensity ([2]; pH 10.22): 42,800
Fluorescence Intensity ([2]; pH 10.33): 42,170
Fluorescence Intensity ([2]; pH 10.43): 42,570
Fluorescence Intensity ([2]; pH 10.48): 42,410
Fluorescence Intensity ([2]; pH 10.59): 40,450
Fluorescence Intensity ([2]; pH 10.68): 41,370
Fluorescence Intensity ([2]; pH 10.75): 40,520
Fluorescence Intensity ([2]; pH 10.85): 40,140
Fluorescence Intensity ([2]; pH 10.91): 38,790

CC(=O)Oc1cc2c(cc1Cl)C(c1ccccc1C(=O)O)c1cc(Cl)c(OC(C)=O)cc1O2 [dihydrodichlorofluorescein acetate, reference compound]
fluorescence response upon ionomycin addition [3]: fluorescence increase could hardly be observed
